For assay [1], the target named is T1, recombinant IDE (Homo sapiens, UniProt P14735).
T1 construct: purchased R&D
T1 sequence (P14735 1-1019): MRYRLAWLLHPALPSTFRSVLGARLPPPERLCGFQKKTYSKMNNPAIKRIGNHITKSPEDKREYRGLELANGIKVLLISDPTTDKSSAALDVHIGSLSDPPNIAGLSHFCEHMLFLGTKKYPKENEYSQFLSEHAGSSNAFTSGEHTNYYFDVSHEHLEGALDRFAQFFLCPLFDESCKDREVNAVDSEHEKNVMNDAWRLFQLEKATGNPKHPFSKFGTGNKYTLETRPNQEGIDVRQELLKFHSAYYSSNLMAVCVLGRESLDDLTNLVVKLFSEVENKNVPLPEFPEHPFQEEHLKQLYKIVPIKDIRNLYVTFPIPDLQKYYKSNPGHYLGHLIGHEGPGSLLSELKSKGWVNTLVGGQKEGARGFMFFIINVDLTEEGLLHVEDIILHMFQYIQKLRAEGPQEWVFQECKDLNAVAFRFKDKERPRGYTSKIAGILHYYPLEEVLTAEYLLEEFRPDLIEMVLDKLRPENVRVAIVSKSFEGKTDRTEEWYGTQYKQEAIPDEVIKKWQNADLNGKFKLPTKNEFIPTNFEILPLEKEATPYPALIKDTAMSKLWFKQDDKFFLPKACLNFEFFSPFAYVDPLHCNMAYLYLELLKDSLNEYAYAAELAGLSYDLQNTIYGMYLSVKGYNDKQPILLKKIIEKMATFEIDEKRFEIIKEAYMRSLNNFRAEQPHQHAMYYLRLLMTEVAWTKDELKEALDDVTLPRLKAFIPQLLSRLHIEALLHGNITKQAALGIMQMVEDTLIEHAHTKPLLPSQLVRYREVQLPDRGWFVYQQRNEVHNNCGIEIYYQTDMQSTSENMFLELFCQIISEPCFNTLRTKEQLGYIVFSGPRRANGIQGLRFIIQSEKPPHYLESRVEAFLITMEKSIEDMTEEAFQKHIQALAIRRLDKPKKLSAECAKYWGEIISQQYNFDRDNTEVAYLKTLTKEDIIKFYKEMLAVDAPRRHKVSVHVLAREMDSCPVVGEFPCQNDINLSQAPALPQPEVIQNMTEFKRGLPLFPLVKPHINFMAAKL
Kind of assay: Fluorogenic substrate enzymatic assay, IDE. The class given is biochemical. As to conditions: 1 mM Sin-1, 30 min preincubation. The procedure:
(§1) Afterwards the substrate was added to a final concentration of 10 μM. The hydrolysis of substrate V was measured based on the increase of fluorescence (exitation 320 nm/emission 405 nm) using a Spectrafluor Plus (Tecan, Austria) plate reader for a time period of up to 60 min in 1 min intervals at 37 C. Determination of IDE activity in mouse brain was performed using the fluorogenic peptide substrate 2-aminobenzoyl-[…]-ethylenediamine-2,4-dinitrophenyl (Bachem, Switzerland)^21. For that mice brains were homogenized in PBS containing 1 mM AEBSF, extracted with 1% Tx-100 and centrifuged at 100000×g for 30 min. 10 μg of supernatants were incubated with 25 μM phosphoramidon to inhibit endogenous neprilysin activity. The fluorogenic substrate was added to a final concentration of 20 μM and the resulting fluorescence signal was measured (excitation 320 nm/emission 413 nm) every 3 min for up to 2 h at 37° C. using a infinite 200 plate reader (Tecan, Austria). Evaluation was done within the linear range of the reaction.

Another assay addresses T2, recombinant neprilysin (Homo sapiens, UniProt P08473).
T2 construct: purchased R&D
Kind of assay: Fluorogenic substrate enzymatic assay, neprilysin. The class given is biochemical. As to conditions: preincubation with different concentrations of Sin-1. The procedure:
as §1

Assay [2] deals with T1, recombinant IDE. As to the kind of experiment: Immunoblot of IDE nitration after Sin-1 incubation. The class given is biochemical. As to conditions: Sin-1 incubated with purified recombinant IDE. In general terms: Immunoblotting shows a protein as a band on a membrane.
In assay [3] the target is T1, recombinant IDE. As to the kind of experiment: Aβ degradation assay. The format is biochemical. As to conditions: IDE preincubated with increasing concentration of Sin-1, then Aβ1-42 for 2 h. An excerpt: Samples were separated by 4-12% NuPAGE and immunoblotted using antibodies PC720 against IDE and 6E10 against Aβ (5E) RIPA fractions of 12 month wild type, APP/PS1 and APP/PS1 iNOS (−/−) animals were monitored for their ability to cleave a fluorgenic peptide substrate in the presence of the neprilysin inhibitor phosphoramidon (n=4+/−SEM, one way anova followed by Tukey post hoc test, […], *p<0.05)

Assay [4] addresses T3, Aβ1-42 (Homo sapiens, UniProt P05067).
T3 construct: Amyloid β 1-42 or Amyloid β 1-42 Y10A (both from rPeptide, Bogart, Ga., USA); host or cells: synthetic peptide
As to the kind of experiment: Aβ aggregation assay (SDS-PAGE, immunoblot 6E10). The class given is biochemical. As to conditions: for high molecular weight (SDS-resistant) aggregates of synthetic Aβ1-42 after incubation with the agent: 5 mM Sin-1 or 0.25 mM peroxynitrite, 18 h. How it is done:
(§2) (6B) Same assay as in A but samples were incubated for different time periods with PN.
(§3) Peptides were separated by 4-12% Nupage and blotted transferred nitrocelluse and incubated with antibody 6E10 (Signet). The remaining sample was stored at −20° C. and analyzed by mass spectrometry. In case of the time course experiment the reaction was stopped using Nupage sample buffer followed by incubation at 70 C for 5 min.
(§4) Aβ1-42, Aβ1-42 Y10F (Peptide Specialty Laboratories) were solubilized as previously described. For nitration samples were incubated with 0.25-0.5 mM peroxynitrate in water while vortexing. Aggregation was started by diluting samples to 25 μM using 50 mM Tris-HCl pH 7. Samples were separated by 4-12% NuPAGE and aggregates were detected using anti-body 6E10 (Signet) and 3-NTyr10-Aβ. Aggregation was expressed as a ratio between the signal above 30 kDa and the Aβ monomer, normalized to the 0 time point of Aβ1-42. Thioflavin T fluorescence assays were performed as described previously. Fluorescence was read at 446 nm (excitation) and 482 nm (emission) using a fluorescence spectrophotometer (Varian).

The test system of assay [5] is Aβ1-42. Kind of assay: Aβ aggregation assay (SDS-PAGE, immunoblot 6E10). The class given is biochemical, human. As to conditions: compared with Aβ1-42. How it is done:
as §2, §3, §4

In assay [6] the test system is Aβ1-42. Kind of assay: Thioflavin T aggregation assay. Conditions: peptide treated with peroxynitrite, compared with Aβ1-42. The class given is biochemical, human. How it is done:
as §4

In assay [7] the test system is APP/PS1 mice. Kind of assay: Eight arm radial maze test. The class given is in vivo, mouse.
Assay [8] deals with APP/PS1 mice. Kind of assay: Brain extract Aβ immunoblot and Aβ1-40/Aβ1-42 ELISA. The format is in vivo, mouse.
For assay [9], the system named is APP/PS1 mice. As to the kind of experiment: Hippocampal LTP recording on brain slices of treated mice. The class given is in vivo, mouse. The text has this: (n=5+/−SEM) Right panel: Evaluation of the early (slope 1; […]; […]) of the amplitude of the mean fEPSP (n=5+/−SEM of ten minutes recordings, one-way ANOVA, Newman-Keuls post test, *p<0.05; **p<0.01; ***p<0.001) (2B) Determination of the slope of the mean fEPSP as in A. Right panel: Evaluation of the amplitude of the mean fEPSP (2C) Immunblot of brain homogenates and synaptosomal fractions in wild type and APP/PS1 animals at 12 month of age using an anti-S-nitrocystein specific antibody. (2D) Coomassie stain of anti-S-nitrocystein antibody precipitated synaptosomal fractions from wild type, APP/PS1, APP/PS1 iNOS (−/−) and APP/PS1 L-NIL mice separated by SDS-PAGE (2E) Protein sequence of Hsp75/mortalin. […]
Physiological recordings were performed on brain slices from 3 month old male and female mice, obtained after anesthetization with isoflurane and decapitation. […] Basal synaptic transmission (BST) was assessed by plotting the current (mA) against the peak amplitudes of fEPSP to generate input-output relations. Paired pulse facilitation (PPF) were recorded by applying interstimulus intervals of 30, 50, 75 and 100 ms. For long term potentiation (LTP) experiments a 15 min baseline were recorded with a interpulse interval of one minute at an intensity that evoked a response approximately 30% of maximum fEPSP. […]

The test system of another assay is primary microglial cells. Kind of assay: Microglial phagocytosis of FAM-labeled Aβ1-42. The class given is cell-based, mouse. Conditions: 500 nM FAM-Aβ1-42.
In assay [10] the target is T3, Aβ1-42. As to the kind of experiment: In vitro Aβ1-42 aggregation with added nitrated Aβ1-42. The format is biochemical. Conditions: 25 μM Aβ1-42, 5 h, antibody IC16.
The mark [11] stands for this setting: APP/PS1 mice at 3 month of age, L-NIL orally in the water from 2-3 month.

Entries after “also recorded” stand apart in the source; their conditions may differ.

T3 sequence (P05067 672-713): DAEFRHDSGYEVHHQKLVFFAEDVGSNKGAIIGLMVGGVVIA
T2 sequence (P08473 whole entry, species assumed): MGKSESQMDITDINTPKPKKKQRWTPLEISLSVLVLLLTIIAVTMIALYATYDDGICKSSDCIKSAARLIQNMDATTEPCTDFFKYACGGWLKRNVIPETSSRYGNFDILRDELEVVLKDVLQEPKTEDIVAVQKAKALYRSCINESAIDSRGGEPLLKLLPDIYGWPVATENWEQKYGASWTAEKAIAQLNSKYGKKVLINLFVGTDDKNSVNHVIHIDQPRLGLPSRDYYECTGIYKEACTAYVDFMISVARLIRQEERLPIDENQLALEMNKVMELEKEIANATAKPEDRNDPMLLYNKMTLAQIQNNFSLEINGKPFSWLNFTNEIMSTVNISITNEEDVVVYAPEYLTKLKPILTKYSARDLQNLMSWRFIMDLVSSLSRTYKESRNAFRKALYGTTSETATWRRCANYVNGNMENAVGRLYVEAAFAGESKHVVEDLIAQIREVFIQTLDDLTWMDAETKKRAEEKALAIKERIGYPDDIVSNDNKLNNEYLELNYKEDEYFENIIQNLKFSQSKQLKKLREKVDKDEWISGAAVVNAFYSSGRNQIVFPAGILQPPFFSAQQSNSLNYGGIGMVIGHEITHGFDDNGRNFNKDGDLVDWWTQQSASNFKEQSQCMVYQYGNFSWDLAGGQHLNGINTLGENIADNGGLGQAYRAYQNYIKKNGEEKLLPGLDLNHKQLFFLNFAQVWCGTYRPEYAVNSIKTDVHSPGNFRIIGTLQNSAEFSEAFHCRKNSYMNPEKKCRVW
Procedure for primary microglial cells: (4A) Analysis of phagocytosis of primary microglia cells from wild type (wt) and iNOS deficient (iNOS (−/−)) mice exposed to 500 nM fibrillar FAM labeled Aβ1-42 peptide for up to 6 h.
Primary microglial cell cultures were prepared as previously described. Briefly, mixed glial cultures were prepared from newborn mice and cultured in DMEM supplemented with 10% FCS and 100 U ml^−1 penicillin/streptomycin. After 10-14 days of primary cultivation, microglial cells were harvested by shake off.
Microglial phagocytosis of FAM-labeled Aβ1-42 (FAM-Aβ) (Anaspec, San Diego, Calif.) was measured by plate based assay. Cells were plated at 50000 cells per well. After 1 h cells Aβ was added to a final concentration of 500 nM and incubated. Finally, the Aβ-containing medium was removed and extracellular Aβ was quenched with 100 μl 0.2% trypan blue in PBS pH 4.4 for 1 min. After aspiration fluorescence was measured at 485 nm excitation/535 nm emission using a Spectrafluor Plus reader (Tecan, Austria). To normalize for cell numbers 100 μl 50 μg/ml H33342 in PBS was added, incubated for 30 min and the fluorescence measured at 360 nm excitation/465 nm emission.

With `N=c1c[n+](N2CCOCC2)[n-]o1` [Sin-1, 3-morpholino-sydnonimine], the IDE activity result on recombinant IDE [1] was “almost complete inhibition”. Further, the activity of neprilysin result on recombinant neprilysin is on record as “could not detect any impact”. For the same compound, the “nitration of IDE (nitrotyrosine immunoblot)” value on recombinant IDE [2] is “modifications of IDE detectable with an nitrotyrosine specific antibody”. Besides, on recombinant IDE [3], the “degradation of Aβ1-42 by IDE” value is “decreased degradation”. For the same compound, the “high molecular weight (SDS-resistant) aggregates of synthetic Aβ1-42 after incubation with the agent” value at Aβ1-42 [4] is “strong induction; also recorded: increased generation”.

As to “Aβ42Y10A: modified human Aβ1-42, tyrosine at position 10 replaced by an alanine (SEQ ID NO. 2)”, the “high molecular weight aggregates of the mutated peptide after incubation with peroxynitrite or Sin-1” value in the assay on Aβ1-42 [5] is “reduced aggregation to the level of untreated Aβ1-42”.

Take `O=NOO` [peroxynitrite]: the “high molecular weight (SDS-resistant) aggregates of synthetic Aβ1-42 after incubation with the agent” value on Aβ1-42 [4] is “increased generation”; on Aβ1-42 [4] (listed as peroxynitrit), “strong induction”. Moreover, the “increase of high molecular aggregates over time” value at Aβ1-42 [4] (within 24 h after peroxynitrite treatment) is listed as “x-fold increase”.

For the compound “Aβ42Y10F: Aβ1-42 peptide with a tyrosine to phenylalanine mutation at position 10”, in the assay with Aβ1-42 [5], the “high molecular weight aggregates of the mutated peptide after incubation with peroxynitrite or Sin-1” value is recorded as “reduced aggregation to the level of untreated Aβ1-42”. Further, the “formation rate of β-sheet amyloid fibril structures (thioflavin T)” value in the assay on Aβ1-42 [6] was “prevented”.

In the case of `CC(=N)NCCCC[C@H](N)C(=O)O` [L-NIL, L-N6-(1-iminoethyl)-lysine], the working memory errors result is “significant reduction” in the assay on APP/PS1 mice [7] (APP/PS1 mice at 3 and 12 months of age (summary statement)); “to some extent” in the assay with APP/PS1 mice [7] (setting [11]). For the same compound, the reference memory errors result in the assay with APP/PS1 mice [7] (setting [11]) was “protected”; with APP/PS1 mice [7] (APP/PS1 mice at 12 month of age, L-NIL from 6-12 month (post plaque, therapeutic)) it was “reversion of APP/PS1 phenotype”. The “working and reference memory errors” value with APP/PS1 mice [7] (APP/PS1 mice treated with L-NIL, age not stated (summary statement)) is recorded as “reduction”. Moreover, the “levels of insoluble and soluble Aβ40 and Aβ42 by ELISA” value in the assay on APP/PS1 mice [8] (5 month old APP/PS1 mice preventively treated with L-NIL from 2-3 month) is recorded as “unable to detect any changes”. Besides, in the assay with APP/PS1 mice [8] (12 month old APP/PS1 mice, L-NIL from 6-12 month), the “insoluble Aβ by immunoblot and insoluble Aβ 1-40 and Aβ 1-42 by ELISA” value is given as “strong reduction”. Moreover, the LTP entry in the assay with APP/PS1 mice [9] (APP/PS1 mice at 3 months of age (summary statement)) is given as “improvement”. Also, in the assay with APP/PS1 mice [9] (hippocampal slices of 3 month old mice, L-NIL from 2-3 month, 10 and after induction), the “APP/PS1 induced reduction (suppression) of early and late phase hippocampal LTP” value is reported as “completely prevented; also recorded: not existent”. Besides, in the assay with primary microglial cells (L-NIL 10 μM), the Aβ1-42 phagocytosis entry is recorded as “did not expose differences”.

In the case of “nitrated Aβ1-42: synthetic Aβ1-42 nitrated at tyrosine 10 by peroxynitrite treatment”, the “formation rate of β-sheet amyloid fibril structures (thioflavin T)” value with Aβ1-42 [6] is on record as “increased formation rate”. In addition, the “formation of Aβ oligomers on addition of small amounts of nitrated Aβ1-42 species” value with Aβ1-42 [10] is reported as “increased formation”.

With `CC(=O)N[C@@H](C(=O)O)C(C)(C)SN=O` (racemic) [SNAP], in the assay on primary microglial cells (SNAP 100 μM), the Aβ1-42 phagocytosis entry was “did not expose differences”.

(Values after patent publication US9011862B2, “Inhibitors of the nitration of amyloid β peptides and their uses in the diagnosis and treatment of Alzheimer's disease” (Rheinische Friedrich-Wilhelms-Universität Bonn, priority 2009, dated 2015).)
